Measurements reported in patent EP4603105A1, “PHARMACEUTICAL COMPOSITION CONTAINING CYCLIC COMPOUND HAVING SELECTIVE KRAS INHIBITORY EFFECT AGAINST HRAS AND NRAS” (CHUGAI SEIYAKU KABUSHIKI KAISHA, priority 2022, dated 2024).
Where a SMILES comes first, the peptide text is derived from it. Bridges are numbered along the chain shown (N, C = ends). [ ]: non-standard residue; d: D form. The star is where a group is joined. hPhe(3-Cl-4-CF3) = N[C@@H](CCc1ccc(C(F)(F)F)c(Cl)c1)C(=O)O; NPrPhe(4-CF3) = CCCN[C@@H](Cc1ccc(C(F)(F)F)cc1)C(=O)O; NMeGly(cPent) = CN[C@H](C(=O)O)C1CCCC1; Pro(4,4-F2) = O=C(O)[C@@H]1CC(F)(F)CN1; NMeD = CN[C@@H](CC(=O)O)C(=O)O; NMeL = CN[C@@H](CC(C)C)C(=O)O; NMeAbu = CC[C@H](NC)C(=O)O; Morpholide = C1CN(*)CCO1; NMeA = CN[C@@H](C)C(=O)O; Ac5c = NC1(C(=O)O)CCCC1; Aze = O=C(O)[C@@H]1CCN1; Ac4c = NC1(C(=O)O)CCC1; Sar = CNCC(=O)O

Columns and labels:
[1] = target: GDP-bound NRAS wild-type protein (Homo sapiens, UniProt P01111); assay: Binding to NRAS by surface plasmon resonance (SPR), KD and KD ratio to KRAS
Procedure, shortened: (§1)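 Measured at 30°C: SPR with GDP-loaded, E. coli-expressed biotin-Avi RAS captured (~100–300 RU), ascending 75 s compound injections, HBS pH 7.4 with GDP, MgCl2, 4% DMSO. KD from 1:1 fit.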

HRAS wild-type protein = HRAS wild-type protein (Homo sapiens, UniProt P01112); assay: Binding to HRAS by surface plasmon resonance (SPR), KD and KD ratio to KRAS
Procedure, shortened: as §1

[2] = tested on: human lung cancer strain NCI-H441; assay type: cell-based
Procedure, shortened: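 Signal came from […] measured per well once the reagent was added. Beforehand, cells were cultured at 37°C and 5% carbon dioxide on a compound series serially diluted in dimethyl sulfoxide.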

[3] = ratio of KD for GDP-bound NRAS wild-type protein to KD for KRAS
[4] = ratio of KD for HRAS wild-type protein to KD for KRAS
[5] = ratio of the KD value with respect to GDP-bound NRAS wild-type protein to the KD value with respect to KRAS
[6] = ratio of the KD value with respect to HRAS wild-type protein to the KD value with respect to KRAS

Sequence of GDP-bound NRAS wild-type protein (P01111 whole entry): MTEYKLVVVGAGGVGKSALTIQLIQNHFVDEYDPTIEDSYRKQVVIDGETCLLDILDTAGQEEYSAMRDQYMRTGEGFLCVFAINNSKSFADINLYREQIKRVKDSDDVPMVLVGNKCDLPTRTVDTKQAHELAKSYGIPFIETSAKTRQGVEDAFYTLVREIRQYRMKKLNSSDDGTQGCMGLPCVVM
Sequence of HRAS wild-type protein (P01112 whole entry): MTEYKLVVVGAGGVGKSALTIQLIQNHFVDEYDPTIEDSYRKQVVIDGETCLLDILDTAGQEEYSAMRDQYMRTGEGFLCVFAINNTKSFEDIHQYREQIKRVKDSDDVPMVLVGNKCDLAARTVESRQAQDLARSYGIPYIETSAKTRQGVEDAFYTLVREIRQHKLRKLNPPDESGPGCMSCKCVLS

Compound | NRAS /KRAS [1, 3] | HRAS /KRAS (HRAS wild-type protein; [4]) | IC50 [2] | NRAS /KRAS [1, 5] | HRAS /KRAS (HRAS wild-type protein; [6]) | NRAS /KRAS ([1]; ratio of KD value for GDP-bound NRAS wild-type protein to KD value for KRAS (SPR)) | HRAS /KRAS (HRAS wild-type protein; ratio of KD value for HRAS wild-type protein to KD value for KRAS (SPR))
CCCN1C(=O)[C@@H]2CCN2C(=O)[C@H](C)N(C)C(=O)[C@H]([C@@H](C)CC)NC(=O)[C@H](CC)N(C)C(=O)C[C@@H](C(=O)N2CCOCC2)N(C)C(=O)[C@H](C2CCCC2)N(C)C(=O)C2(CCCC2)NC(=O)[C@@H]2CCCN2C(=O)[C@H](CCc2ccc(C(F)(F)F)c(Cl)c2)NC(=O)CN(C)C(=O)[C@@H]1Cc1ccc(C(F)(F)F)cc1 [PP0194] ([NMeAbu]I[NMeA][Aze][NPrPhe(4-CF3)][Sar][hPhe(3-Cl-4-CF3)]P[Ac5c][NMeGly(cPent)][NMeD]-Morpholide; lactam N-11) | C (A compound having a KD ratio of 0.1 or more and less than 3 is denoted as C) | B (a compound having 3 or more and less than 10 is denoted as B) | 1.9 nM |  |  |  | 
CCCN1C(=O)[C@@H]2CCN2C(=O)[C@H](C)N(C)C(=O)[C@H]([C@@H](C)CC)NC(=O)[C@H](CC(C)C)N(C)C(=O)C[C@@H](C(=O)N2CCOCC2)N(C)C(=O)[C@H](C2CCCC2)N(C)C(=O)C2(CCC2)NC(=O)[C@@H]2CC(F)(F)CN2C(=O)[C@H](CCc2ccc(C(F)(F)F)c(Cl)c2)NC(=O)CN(C)C(=O)[C@@H]1Cc1ccc(C(F)(F)F)cc1 [PP0208] ([NMeL]I[NMeA][Aze][NPrPhe(4-CF3)][Sar][hPhe(3-Cl-4-CF3)][Pro(4,4-F2)][Ac4c][NMeGly(cPent)][NMeD]-Morpholide; lactam N-11) | C (A compound having a KD ratio of 0.1 or more and less than 3 is denoted as C) | C (A compound having a KD ratio of 0.1 or more and less than 3 is denoted as C) | 4.6 nM |  |  |  | 
C=CC[C@H]1C(=O)N[C@@H]([C@@H](C)CC)C(=O)N(C)CC(=O)N(C)[C@H]2C/C=C\CCN(C2=O)[C@@H](Cc2ccc(C(F)(F)F)cc2)C(=O)N(C)CC(=O)N[C@@H](CCc2cc(F)c(C(F)(F)F)c(F)c2)C(=O)N2C[C@H](OCC)C[C@H]2C(=O)NC2(CCC2)C(=O)N(C)[C@@H](C2CCCC2)C(=O)N(C)[C@H](C(=O)N(C)C)CC(=O)N1C [PP1114] | A (a compound having 10 or more and less than 20 is denoted as A) | A (a compound having 10 or more and less than 20 is denoted as A) | 12.2 nM |  |  |  | 
CCC[C@H]1C(=O)N[C@@H]([C@@H](C)CC)C(=O)N(C2CC2)CC(=O)N(C)[C@H]2C/C=C\CCN(C2=O)[C@@H](Cc2ccc(C(F)(F)F)cc2)C(=O)N(C)CC(=O)N[C@@H](CCc2ccc(C(F)(F)F)c(OC)c2)C(=O)N2C[C@H](OCC)C[C@H]2C(=O)N(C)C2(CCC2)C(=O)N(C)[C@@H](C2CCCC2)C(=O)N(C)[C@H](C(=O)N(C)C)CC(=O)N1C [PP2316] |  |  | 1.6 nM | A (a compound having 10 or more and less than 20 is denoted as A) | A (a compound having 10 or more and less than 20 is denoted as A) |  | 
CCO[C@@H]1C[C@H]2C(=O)NC3(CCC3)C(=O)N(C)[C@@H](C(CC)CC)C(=O)N(C)[C@H](C(=O)N(C)C)CC(=O)N(C)[C@@H](CC3CCCC3)C(=O)N[C@@H]([C@@H](C)CC)C(=O)N(C)CC(=O)N(C)[C@H]3C/C=C\CCN(C3=O)[C@@H](Cc3ccc(F)cc3C)C(=O)N(C)CC(=O)N[C@@H](CCc3cc(F)c(C(F)(F)F)c(F)c3)C(=O)N2C1 [PP1516] |  |  | 45.7 nM |  |  | A (a compound having 10 or more and less than 20 is denoted as A) | B (a compound having 3 or more and less than 10 is denoted as B)
CC[C@H](C)[C@@H]1NC(=O)[C@H](CC(C)C)N(C)C(=O)C[C@@H](C(=O)N2CCOCC2)N(C)C(=O)[C@H](C2CCCC2)N(C)C(=O)C2(CCCC2)NC(=O)[C@@H]2CCCN2C(=O)[C@H](CCc2ccc(C(F)(F)F)c(Cl)c2)NC(=O)CN(C)C(=O)[C@H](Cc2ccc(OC(F)(F)F)cc2)N2C/C=C\CC[C@@H](C2=O)N(C)C(=O)CN(C)C1=O [PP0610] |  |  | 689 nM | B (a compound having 3 or more and less than 10 is denoted as B) | B (a compound having 3 or more and less than 10 is denoted as B) |  | 
CCCN1C(=O)CN(C)C(=O)CN(C)C(=O)[C@H]([C@@H](C)CC)NC(=O)[C@H](CC(C)C)N(C)C(=O)C[C@@H](C(=O)N(C)C)NC(=O)[C@H](C2CCCC2)N(C)C(=O)C2(CCCC2)NC(=O)[C@@H]2CC(F)(F)CN2C(=O)[C@H](CCc2ccc(C(F)(F)F)c(Cl)c2)NC(=O)CN(C)C(=O)[C@@H]1Cc1ccc(C(F)(F)F)cc1 [PP0357] ([NMeL]I[Sar][Sar][NPrPhe(4-CF3)][Sar][hPhe(3-Cl-4-CF3)][Pro(4,4-F2)][Ac5c][NMeGly(cPent)]D-NMe2; lactam N-11) | B (a compound having 3 or more and less than 10 is denoted as B) | B (a compound having 3 or more and less than 10 is denoted as B) | 39.8 nM |  |  |  | 
